Experimental data published in patent US20110178016A1, “PULSE PARATHYROID HORMONE FOR TREATMENT OF THE HEM[…], STROMAL CELL LOSS, AND VASCULAR INJURY RESULTING FROM ACUTE EXPOSURE TO LETHAL RADIATION” (priority 2008, published 2011).
“Also recorded” adds a separate entry of the source.

Tests used:
[1] = tested on: macaque monkeys following chemo-ablative therapy and MHC mis-matched allogeneic stem cell transplant; test: Daily PTH after chemo-ablative conditioning and MHC mismatched allogeneic stem cell transplant; type: in vivo
Excerpt: A previously unrecognized role for PTH on mitigation of myelosuppression in macaque monkeys is described. Following chemo-ablative therapy and MHC mis-matched allogeneic stem cell transplant, animals were randomized to daily PTH treatment (5 mcg/kg/day subcutaneously) or placebo. […] Following myeloablation, PTH may act to increase megakaryopoiesis through increased production of HSC.
Bone marrow transplant studies by Calvi and colleagues characterized this process in the syngeneic mouse model of osteoblastic activation. To see if PTH could enhance allogeneic stem cell engraftment in nonhuman primates (monkeys), donors were MHC mismatched based on recipient proliferation against donor cells in the mixed lymphocyte culture and by disparity at the class I antigen, Bw6. This disparity permitted tracking of Bw6+ donor cells following transplantation into Bw6-recipients. Eight control recipients were conditioned with thymoglobulin, rituxan, fludarabine, and melphalan. Six animals received the conditioning regimen supplemented with parathyroid hormone beginning on the first day of the conditioning regimen and administered daily at a dose of 5 micrograms/kg subcutaneously. An allogeneic stem cell transplant consisting of 2−4×10^6 CD34+cells/kg was administered on day 0. Outcome measures included PTH levels, CBCs, and donor engraftment via flow cytometry.

[2] = tested on: bone marrow colony forming units / hematopoietic stem cells; test: Bone marrow colony forming units and hematopoietic stem cell content in irradiated mice; type: in vivo, B6 mice; settings: 772 cGy
Method: In a second experiment, a sub-group of animals were euthanized on day 7, n=3 per cohort. Bone marrows were flushed and CFUs were performed.
B6 mice underwent 772 cGy irradiation and a daily total dose of 400 mcg/kg/day of PTH.
One group of animals was euthanized on day 3 (n=3) one group on day 7 (n=4) and one group (n=3) on day 28.
Bone marrow was analyzed for colony forming units (CFU) (FIGS. 9A and 9B), hematopoietic stem cell content. Serum was analyzed for PTH levels on the final day of the study to determine the duration of detectable PTH in the serum following the final dose.
Mice underwent exposure to 772 cGy radiation and were randomized to treatment of daily PTH 400 mcg/kg or saline. On days 3 (n=3) and 7 (n=4) bone marrow was analyzed for colony forming units.
Following irradiation with 772 cGy, mice underwent bone marrow analysis on days 3 (n=3) or 7 (n=4) for hematopoietic stem cell content. […] (FIG. 11)

[3] = tested on: bone marrow colony forming units / CD34+ hematopoietic stem cells; test: Bone marrow CFU and CD34+ cells in non-irradiated monkeys 24 hours after first PTH dose; type: in vivo, cynomolgus monkeys; settings: non-irradiated CYNOs
Method: Two cynomolgus monkeys (hereafter referred to as CYNOs) were treated with a 21 day course of daily subcutaneous PTH at either 100 mcg/kg (monkey 7801) or 50 mcg/kg (monkey 7872). Hematopoietic outcome measures included:
(a) bone marrow analysis for colony forming units 24 hours after first dose of PTH;
(b) bone marrow analysis for CD34+ hematopoietic stem cells 24 hours after first dose of PTH;

rat = settings: prolonged daily dosing, 4 months-2 years; cited from earlier work
monkeys = settings: prolonged daily dosing, 4 months-2 years; cited from earlier work
[4] = macaques, PTH 5 mcg/kg/day sc, statistical significance by 4 weeks

CC[C@H](C)[C@H](NC(=O)[C@H](CCC(=O)O)NC(=O)[C@H](CO)NC(=O)[C@@H](NC(=O)[C@@H](N)CO)C(C)C)C(=O)N[C@@H](CCC(N)=O)C(=O)N[C@@H](CC(C)C)C(=O)N[C@@H](CCSC)C(=O)N[C@@H](Cc1cnc[nH]1)C(=O)N[C@@H](CC(N)=O)C(=O)N[C@@H](CC(C)C)C(=O)NCC(=O)N[C@@H](CCCCN)C(=O)N[C@@H](Cc1cnc[nH]1)C(=O)N[C@@H](CC(C)C)C(=O)N[C@@H](CC(N)=O)C(=O)N[C@@H](CO)C(=O)N[C@@H](CCSC)C(=O)N[C@@H](CCC(=O)O)C(=O)N[C@@H](CCCN=C(N)N)C(=O)N[C@H](C(=O)N[C@@H](CCC(=O)O)C(=O)N[C@@H](Cc1c[nH]c2ccccc12)C(=O)N[C@@H](CC(C)C)C(=O)N[C@@H](CCCN=C(N)N)C(=O)N[C@@H](CCCCN)C(=O)N[C@@H](CCCCN)C(=O)N[C@@H](CC(C)C)C(=O)N[C@@H](CCC(N)=O)C(=O)N[C@@H](CC(=O)O)C(=O)N[C@H](C(=O)N[C@@H](Cc1cnc[nH]1)C(=O)N[C@@H](CC(N)=O)C(=O)N[C@@H](Cc1ccccc1)C(=O)O)C(C)C)C(C)C [PTH, Teriparatide]
hemoglobin (serial CBCs) ([1]; PTH group vs control group): no significant difference | engrafting donor B cells ([1]; macaques, PTH 5 mcg/kg/day sc): significantly increased | host (recipient) T cells ([1]; macaques, PTH 5 mcg/kg/day sc): no significant increase; also recorded: little or no effect | host or donor myeloid lineage CD14 or CD11b+ cells ([1]; macaques, PTH 5 mcg/kg/day sc): no significant increase | engrafting donor T cells (CD4 and CD8 subsets) ([1]; macaques, PTH 5 mcg/kg/day sc vs control): significant increases; also recorded: significantly increased; also recorded: increased over control animals | engrafting donor CD34+ cells [1, 4]: significantly increased; also recorded: significant increases | host CD34+ stem cells [1, 4]: significantly increased; also recorded: significant increases | platelet counts in peripheral blood ([1]; macaques, PTH 5 mcg/kg/day subcutaneously vs untreated controls, first observed 7 days after PTH therapy): statistically significant increase; also recorded: increased levels of platelets | recipient granulocytes or natural killer cells ([1]; macaques, PTH 5 micrograms/kg sc daily): No effect | iliac crest bone biopsy findings after vs before PTH treatment ([1]; monkeys 7150 and 7154, 5 weeks after PTH treatment): increased cortical bone, increased osteoblasts, and loss of adiposity; also recorded: adiposity was reduced, and cortical bone formation increased | CFU capabilities of bone marrow ([2]; PTH 400 mcg/kg/day x 7 days, euthanized on day 7, n=3 per cohort, compared to other groups): greatest preservation of CFU capabilities; also recorded: preserves CFU | CFU-GM and CFU-M in bone marrow ([2]; daily PTH 400 mcg/kg vs saline, days 3 and 7): increased with PTH therapy | bone marrow hematopoietic stem cell content, treatment vs control ([2]; daily PTH 400 mcg/kg, day 3): no statistical significance | increase in bone marrow stem cell content ([2]; daily PTH 400 mcg/kg, day 7): 5 fold | BFU and CFU-GEMM in bone marrow ([2]; daily PTH 400 mcg/kg, trend more pronounced on day 7): increased with PTH treatment | CFU-GM and CFU-M in bone marrow aspirates ([3]; 50 or 100 mcg/kg, 24 hours after first dose, more pronounced with higher dose): increases | Erythroid, megakaryocyte lineages (BFU, CFU-GEMM) in bone marrow aspirate ([3]; 50 or 100 mcg/kg, after first dose): increase | bone marrow analysis, all lineages, by PTH dose ([3]; 50 vs 100 mcg/kg): dose response | percent of CD34+ hematopoietic stem cells vs pre-treatment levels ([3]; 24 hours after first dose): increases | doses at which toxicity was observed (rat): exceeding 75 mcg/kg | doses at which toxicity was observed (monkeys): > 0.04 mg/kg
